Experimental data from patent US20140323418A1, “SELECTIVE KINASE INHIBITORS” (PORTOLA PHARMACEUTICALS, INC., priority 2011, published 2014).

These compounds were tested against T1, full length active recombinant SYK enzyme (Homo sapiens, UniProt P43405) (assay: Inhibition of Syk tyrosine phosphorylation activity (LANCE TR-FRET kinase assay)). Conditions: 1 nM SYK, 550 nM substrate, 100 μM ATP, 1 hour room temperature.
T1 construct: full length active recombinant SYK enzyme (Millipore, Calif.); purchased Millipore
Assay type: biochemical

| IC50 [nM] | Structure (SMILES) |
| --- | --- |
| 10 to 100 | NC(=O)c1cnc(N[C@@H]2CCNC2)nc1Nc1cccc(-c2ncccn2)c1 [Example 222] |
| 10 to 100 | Cc1nsc(Nc2nc(N[C@@H]3CCCC[C@@H]3N)ncc2C(N)=O)c1I [Example 231, 2-(((1R,2S)-2-aminocyclohexyl)amino)-4-((4-iodo-3-methylisothiazol-5-yl)amino)pyrimidine-5-carboxamide] |
| 10 to 100 | Cc1nsc(Nc2nc(N[C@@H]3CCCC[C@@H]3N)ncc2C(N)=O)c1Cl [Example 232, 2-(((1R,2S)-2-aminocyclohexyl)amino)-4-((4-chloro-3-methylisothiazol-5-yl)amino)pyrimidine-5-carboxamide] |
| 10 to 100 | NC(=O)c1cnc(N[C@@H]2CCC[C@H](F)[C@@H]2N)nc1Nc1cccc(-n2nccn2)c1 [Example 235, 4-(3-(2H-1,2,3-triazol-2-yl)phenylamino)-2-((1R,2R,3S)-2-amino-3-fluorocyclohexylamino)pyrimidine-5-carboxamide] |
| 10 to 100 | NC(=O)c1cnc(N[C@@H]2CCC[C@H](F)[C@@H]2N)nc1Nc1cccc(-c2ncccn2)c1 [Example 236, 2-((1R,2R,3S)-2-amino-3-fluorocyclohexylamino)-4-(3-(pyrimidin-2-yl)phenylamino)pyrimidine-5-carboxamide] |
| 10 to 100 | NC(=O)c1cnc(N[C@@H]2CCC[C@H](F)[C@@H]2N)nc1Nc1ccc2ncccc2c1 [Example 237, 2-((1R,2R,3S)-2-amino-3-fluorocyclohexylamino)-4-(quinolin-6-ylamino)pyrimidine-5-carboxamide] |
| 10 to 100 | NC(=O)c1cnc(N[C@@H]2CCC[C@H](F)[C@@H]2N)nc1Nc1cccc(-n2cccn2)c1 [Example 238, 4-(3-(1H-pyrazol-1-yl)phenylamino)-2-((1R,2R,3S)-2-amino-3-fluorocyclohexylamino)pyrimidine-5-carboxamide] |
| 10 to 100 | NC(=O)c1cnc(N[C@@H]2CCC[C@H](F)[C@@H]2N)nc1Nc1ccc2ncsc2c1 [Example 239, 2-((1R,2R,3S)-2-amino-3-fluorocyclohexylamino)-4-(benzo[d]thiazol-6-ylamino)pyrimidine-5-carboxamide] |
| 10 to 100 | Cn1ncc2c(Nc3nc(N[C@@H]4CCC[C@H](F)[C@@H]4N)ncc3C(N)=O)cccc21 [Example 240, 2-((1R,2R,3S)-2-amino-3-fluorocyclohexylamino)-4-(1-methyl-1H-indazol-4-ylamino)pyrimidine-5-carboxamide] |
| 100 to 1000 | NC(=O)c1cnc(N[C@@H]2CCC[C@H](F)[C@@H]2N)nc1Nc1cnc2ccccc2c1 [Example 241, 2-((1R,2R,3S)-2-amino-3-fluorocyclohexylamino)-4-(quinolin-3-ylamino)pyrimidine-5-carboxamide] |
| 100 to 1000 | Cc1ccc(Nc2ncc(C(N)=O)c(N[C@H]3CC[C@H](N)CC3)n2)cc1 [Example 244, 4-(trans-4-aminocyclohexylamino)-2-(p-tolylamino)pyrimidine-5-carboxamide] |
| 10 to 100 | NC(=O)c1cnc(N[C@@H]2CCCC[C@@H]2N)nc1Nc1cccc(-n2ncc[n+]2[O-])c1 [Example 251, 2-(3-((2-(((1R,2S)-2-aminocyclohexyl)amino)-5-carbamoylpyrimidin-4-yl)amino)phenyl)-2H-1,2,3-triazole 1-oxide] |
| 1 to 10 | NC(=O)c1cnc(N[C@@H]2CCCC[C@@H]2N)nc1Nc1cccc(-n2ncc(O)n2)c1 [Example 252, 2-(((1R,2S)-2-aminocyclohexyl)amino)-4-((3-(4-hydroxy-2H-1,2,3-triazol-2-yl)phenyl)amino)pyrimidine-5-carboxamide] |
| > 1000 | CC(=O)Oc1cnn(-c2cccc(Nc3nc(N[C@@H]4CCCC[C@@H]4N)ncc3C(N)=O)c2)n1 [Example 253, 2-(3-((2-(((1R,2S)-2-aminocyclohexyl)amino)-5-carbamoylpyrimidin-4-yl)amino)phenyl)-2H-1,2,3-triazol-4-yl acetate] |
| 10 to 100 | NC(=O)c1cnc(N[C@@H]2CCCC[C@@H]2N)nc1Nc1ccc(-c2ncco2)cc1 [Example 255, 2-(((1R,2S)-2-aminocyclohexyl)amino)-4-((4-(oxazol-2-yl)phenyl)amino)pyrimidine-5-carboxamide] |

Second part, the compound before the results:

| Structure (SMILES) | IC50 [nM] |
| --- | --- |
| NC(=O)c1cnc(N[C@H]2CN[C@H](C(=O)O)C2)nc1Nc1cnc2ccccc2c1 [Example 217, (2S,4R)-4-((5-carbamoyl-4-(quinolin-3-ylamino)pyrimidin-2-yl)amino)pyrrolidine-2-carboxylic acid] | > 1000 |
| CNC(=O)[C@@H]1C[C@@H](Nc2ncc(C(N)=O)c(Nc3cccc(C)c3)n2)CN1 [Example 218, 2-(((3R,5S)-5-(methylcarbamoyl)pyrrolidin-3-yl)amino)-4-(m-tolylamino)pyrimidine-5-carboxamide] | > 1000 |
| Cc1cccc(Nc2nc(N[C@H]3CN[C@H](C(=O)N(C)C)C3)ncc2C(N)=O)c1 [Example 219, 2-(((3R,5S)-5-(dimethylcarbamoyl)pyrrolidin-3-yl)amino)-4-(m-tolylamino)pyrimidine-5-carboxamide] | > 1000 |
| CN1CCCc2cc(Nc3nc(N[C@H]4CN[C@@H](CO)C4)ncc3C(N)=O)ccc21 [Example 220, 2-(((3R,5R)-5-(hydroxymethyl)pyrrolidin-3-yl)amino)-4-((1-methyl-1,2,3,4-tetrahydroquinolin-6-yl)amino)pyrimidine-5-carboxamide] | 10 to 100 |
| NC(=O)c1cnc(N[C@@H]2CCNC2)nc1Nc1cccc(-n2nccn2)c1 [Example 221, (R)-4-(3-(2H-1,2,3-triazol-2-yl)phenyeamino)-2-(pyrrolidin-3-ylamino)pyrimidine-5-carboxamide] | 1 to 10 |
| CCN1CC[C@@H](Nc2ncc(C(N)=O)c(Nc3cccc(-n4nccn4)c3)n2)C1 [Example 223] | > 1000 |
| N#CCN1CC[C@@H](Nc2ncc(C(N)=O)c(Nc3cccc(-n4nccn4)c3)n2)C1 [Example 224] | 100 to 1000 |
| NC(=O)c1cnc(N[C@H]2CN[C@H](CO)C2)nc1Nc1cccc(-n2nccn2)c1 [Example 225] | 100 to 1000 |
| C=C1C[C@@H](Nc2ncc(C(N)=O)c(Nc3cccc(-n4nccn4)c3)n2)CN1 [Example 226] | 100 to 1000 |
| CC1=C[C@@H](Nc2ncc(C(N)=O)c(Nc3cccc(-n4nccn4)c3)n2)CN1 [Example 227] | 100 to 1000 |
| NC(=O)c1cnc(N[C@@H]2CCN(C=O)C2)nc1Nc1cccc(-n2nccn2)c1 [Example 228] | > 1000 |
| NC(=O)c1cnc(N[C@H]2CN[C@@H](CF)C2)nc1Nc1cccc(-n2nccn2)c1 [Example 229, 4-((3-(2H-1,2,3-triazol-2-yl)phenyl)amino)-2-(((3R,5R)-5-(fluoromethyl)pyrrolidin-3-yl)amino)pyrimidine-5-carboxamide] | 100 to 1000 |
| NC(=O)c1cnc(N[C@H]2CNC(=O)C2)nc1Nc1cccc(-n2nccn2)c1 [Example 230] | 100 to 1000 |
| COc1ccc(Nc2ncc(C(N)=O)c(N[C@H]3CC[C@H](N)CC3)n2)cc1 [Example 245, 4-(trans-4-aminocyclohexylamino)-2-(4-methoxyphenylamino)pyrimidine-5-carboxamide] | 100 to 1000 |
| NC(=O)c1cnc(N[C@@H]2CCCC[C@@H]2N)nc1Nc1cc(-n2cccn2)cc(-n2cccn2)c1 [Example 249, 2-(((1R,2S)-2-aminocyclohexyl)amino)-4-((3,5-di(1H-pyrazol-1-yl)phenyl)amino)pyrimidine-5-carboxamide] | 1 to 10 |
| CC[C@@H](Nc1ncc(C(N)=O)c(Nc2cc(-n3cccn3)cc(-n3cccn3)c2)n1)C(N)=O [Example 250, (R)-2-((1-amino-1-oxobutan-2-yl)amino)-4-((3,5-di(1H-pyrazol-1-yl)phenyl)amino)pyrimidine-5-carboxamide] | 100 to 1000 |
